What was measured:
[1] = test system: B08 (DNA, aptamer) AGCCTCGTCTGTTCTCCCGGCGCATGATCATTCGGTGGGTAAGGTGGTGGTAACGTTGGGGAAGACAAGCAGACGT; assay: SYBR Green I displacement fluorescence; details: 137 mM NaCl, 2.7 mM KCl, 10 mM Na2HPO4, 2 mM KH2PO4, pH 7.4, tracer SYBR Green I
[2] = test system: A08 (DNA, aptamer) AGCCTCGTCTGTTCTCCCGGCAGTGTGGGCGAATCTATGCGTACCGTTCGATATCGTGGGGAAGACAAGCAGACGT; assay: SYBR Green I displacement fluorescence; details: 137 mM NaCl, 2.7 mM KCl, 10 mM Na2HPO4, 2 mM KH2PO4, pH 7.4, tracer SYBR Green I
[3] = test system: A08 minimer (DNA, aptamer) GGCAGTGTGGGCGAATCTATGCGTACCGTTCGATATCGTG; assay: SYBR Green I displacement fluorescence; details: 137 mM NaCl, 2.7 mM KCl, 10 mM Na2HPO4, 2 mM KH2PO4, pH 7.4, tracer SYBR Green I
[4] = test system: A08 (DNA, aptamer) AGCCTCGTCTGTTCTCCCGGCAGTGTGGGCGAATCTATGCGTACCGTTCGATATCGTGGGGAAGACAAGCAGACGT; assay: fluorescence enhancement at 520 nm; details: 137 mM NaCl, 2.7 mM KCl; 10 mM Na2HPO4, 2 mM KH2PO4, pH 7.4; excitation 497 nm
[5] = test system: B08 (DNA, aptamer) AGCCTCGTCTGTTCTCCCGGCGCATGATCATTCGGTGGGTAAGGTGGTGGTAACGTTGGGGAAGACAAGCAGACGT; assay: fluorescence enhancement at 520 nm; details: 137 mM NaCl, 2.7 mM KCl; 10 mM Na2HPO4, 2 mM KH2PO4, pH 7.4; excitation 497 nm
[6] = test system: Non-specific control (DNA, single strand) AGCACGTTGGTAGGTCGGTTTGGGTTTCGTGC; assay: fluorescence enhancement at 520 nm; details: 137 mM NaCl, 2.7 mM KCl; 10 mM Na2HPO4, 2 mM KH2PO4, pH 7.4; excitation 497 nm
[7] = test system: A08 minimer (DNA, aptamer) GGCAGTGTGGGCGAATCTATGCGTACCGTTCGATATCGTG; assay: fluorescence enhancement at 520 nm; details: 137 mM NaCl, 2.7 mM KCl; 10 mM Na2HPO4, 2 mM KH2PO4, pH 7.4; excitation 497 nm
[8] = test system: A08 (DNA, aptamer) AGCCTCGTCTGTTCTCCCGGCAGTGTGGGCGAATCTATGCGTACCGTTCGATATCGTGGGGAAGACAAGCAGACGT; assay: magnetic beads isocratic elution, fluorescence; details: 137 mM NaCl, 2.7 mM KCl; immobilised compound (amine Dynabeads, EDC); 10 mM Na2HPO4, 2 mM KH2PO4, pH 7.4; apparent
[9] = test system: Non-specific control (DNA, single strand) AGCACGTTGGTAGGTCGGTTTGGGTTTCGTGC; assay: SYBR Green I displacement fluorescence; details: 137 mM NaCl, 2.7 mM KCl; 10 mM Na2HPO4, 2 mM KH2PO4, pH 7.4; tracer SYBR Green I; highest OTA about 0.18 µM
[10] = test system: 1.12.2 (DNA, aptamer) GATCGGGTGTGGGTGGCGTAAAGGGAGCATCGGACA; assay: magnetic beads isocratic elution, fluorescence; details: 137 mM NaCl, 2.7 mM KCl; immobilised compound (amine Dynabeads, EDC); 10 mM Na2HPO4, 2 mM KH2PO4, pH 7.4; apparent
[11] = test system: B08 (DNA, aptamer) AGCCTCGTCTGTTCTCCCGGCGCATGATCATTCGGTGGGTAAGGTGGTGGTAACGTTGGGGAAGACAAGCAGACGT; assay: magnetic beads isocratic elution, fluorescence; details: 137 mM NaCl, 2.7 mM KCl; immobilised compound (amine Dynabeads, EDC); 10 mM Na2HPO4, 2 mM KH2PO4, pH 7.4; apparent
[12] = compared at 30 and 100 nM, highest about 0.18 µM

CC(=O)CC(c1ccccc1)c1c(O)c2ccccc2oc1=O (stereo not shown) was tested, and the binding ([1]; OTA signal 2–3 fold larger) was “weak”, the binding [2, 12] was “no” and the binding [3, 12] was “no”.
In the case of CCCN(CCCN(C)C)c1cc(C=C2Sc3ccccc3N2C)c2ccccc2[n+]1-c1ccccc1, the binding [4] is reported as “yes”, the binding [5] is reported as “yes” and the binding [6] is reported as “yes”. The binding [7] was “yes”.
C[C@@H]1Cc2ccc(C(=O)N[C@@H](Cc3ccccc3)C(=O)O)c(O)c2C(=O)O1 was tested, and the binding ([1]; OTA signal 2–3 fold larger) was “weak”, the binding ([2]; OTA signal 6–10 fold larger) was “weak” and the binding ([3]; OTA signal 6–10 fold larger) was “weak”.
C[C@@H]1Cc2c(Cl)cc(C(=O)N[C@@H](Cc3ccccc3)C(=O)O)c(O)c2C(=O)O1 was tested, and the KD [8] was 0.29 ± 0.15 µM, the binding [1] was “yes” and the binding [9] was “no”. The KD [10] was 0.37 ± 0.25 µM, the binding ([3]; linear signal to 100 nM OTA) was “yes” and the KD [11] was 0.11 ± 0.05 µM.

— PMC4147592 (2014)
